In ChEMBL document CHEMBL1201862, “PubChem BioAssay data set” (2004):
Calls of active or inactive are those of the source. Unless noted, the rule behind the calls is not given here.

What was measured:
Assay type in all cases: functional
INS1 = test: caspase-3/7 inhibition in cytokine-treated INS-1E, dose response, beta-cell apoptosis inhibitor project, cell-based, caspase luminescence, dry powder (AID 488848); details: Rattus norvegicus
Hexokinase HKDC1 = biological target: T1, Hexokinase HKDC1 (Homo sapiens, UniProt Q2TB90); test: SAR analysis of small molecule inhibitors of hexokinase domain containing I (HKDC1). [Related pubchem assays (depositor defined):AID493160, AID493190]
T1 sequence (Q2TB90 whole entry): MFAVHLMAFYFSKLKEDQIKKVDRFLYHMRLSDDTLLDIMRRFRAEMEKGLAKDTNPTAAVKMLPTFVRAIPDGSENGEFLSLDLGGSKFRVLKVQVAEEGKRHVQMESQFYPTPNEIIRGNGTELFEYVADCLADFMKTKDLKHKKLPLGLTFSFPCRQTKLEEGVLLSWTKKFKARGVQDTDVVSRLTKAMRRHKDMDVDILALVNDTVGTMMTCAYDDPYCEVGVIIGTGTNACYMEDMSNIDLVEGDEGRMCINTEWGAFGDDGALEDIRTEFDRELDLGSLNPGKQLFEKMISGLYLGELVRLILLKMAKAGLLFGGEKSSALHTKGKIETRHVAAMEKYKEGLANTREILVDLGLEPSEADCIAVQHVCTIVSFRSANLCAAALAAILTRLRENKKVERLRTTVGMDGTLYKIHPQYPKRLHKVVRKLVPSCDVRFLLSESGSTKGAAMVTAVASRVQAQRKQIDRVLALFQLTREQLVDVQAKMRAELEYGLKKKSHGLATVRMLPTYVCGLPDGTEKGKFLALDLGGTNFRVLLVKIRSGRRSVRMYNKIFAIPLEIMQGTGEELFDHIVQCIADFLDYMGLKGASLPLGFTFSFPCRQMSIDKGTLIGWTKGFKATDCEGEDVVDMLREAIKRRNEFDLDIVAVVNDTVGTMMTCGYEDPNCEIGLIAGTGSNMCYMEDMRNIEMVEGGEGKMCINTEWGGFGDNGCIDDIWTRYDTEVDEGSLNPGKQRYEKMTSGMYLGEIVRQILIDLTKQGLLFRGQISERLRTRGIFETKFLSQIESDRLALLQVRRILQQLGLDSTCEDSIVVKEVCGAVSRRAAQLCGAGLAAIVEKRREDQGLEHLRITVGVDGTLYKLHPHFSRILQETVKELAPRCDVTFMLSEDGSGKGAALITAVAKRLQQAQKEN

[1] = BHK-21 cell cytotoxicity, cytotoxicity control for flavivirus guanylyltransferase probe project, secondary screen (AID 624078)
Hexokinase-1 = biological target: T2, Hexokinase-1 (Homo sapiens, UniProt P19367); test: SAR analysis of small molecule inhibitors of hexokinase domain containing I (HKDC1) in the hexokinase 1 selectivity assay. [Related pubchem assays (depositor defined):AID493160, AID493190]
T2 sequence (P19367 whole entry): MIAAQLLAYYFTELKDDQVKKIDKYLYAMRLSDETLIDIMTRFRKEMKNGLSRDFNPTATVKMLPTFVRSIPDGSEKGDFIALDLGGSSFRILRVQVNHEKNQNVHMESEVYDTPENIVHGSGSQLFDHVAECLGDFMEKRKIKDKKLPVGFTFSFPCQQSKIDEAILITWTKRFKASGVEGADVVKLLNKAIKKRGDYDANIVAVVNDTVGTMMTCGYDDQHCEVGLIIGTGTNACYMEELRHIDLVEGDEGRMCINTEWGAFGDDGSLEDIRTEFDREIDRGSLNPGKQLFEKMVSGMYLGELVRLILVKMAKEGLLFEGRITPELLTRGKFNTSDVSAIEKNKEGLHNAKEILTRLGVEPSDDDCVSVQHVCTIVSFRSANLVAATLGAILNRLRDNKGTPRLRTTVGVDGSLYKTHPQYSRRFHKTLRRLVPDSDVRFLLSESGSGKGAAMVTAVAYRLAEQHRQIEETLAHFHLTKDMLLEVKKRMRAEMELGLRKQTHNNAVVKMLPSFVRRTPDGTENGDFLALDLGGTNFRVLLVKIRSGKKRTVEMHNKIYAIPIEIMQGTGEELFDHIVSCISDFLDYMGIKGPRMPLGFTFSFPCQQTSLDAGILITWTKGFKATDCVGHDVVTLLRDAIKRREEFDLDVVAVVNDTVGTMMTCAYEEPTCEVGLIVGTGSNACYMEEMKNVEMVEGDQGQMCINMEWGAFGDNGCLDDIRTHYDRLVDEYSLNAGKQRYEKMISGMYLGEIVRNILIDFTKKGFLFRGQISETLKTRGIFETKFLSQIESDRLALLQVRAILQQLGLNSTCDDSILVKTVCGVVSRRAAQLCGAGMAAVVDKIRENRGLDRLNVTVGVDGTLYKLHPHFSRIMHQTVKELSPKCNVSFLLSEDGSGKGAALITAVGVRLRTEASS

Phospholipase D2 [2] = biological target: T3, Phospholipase D2 (Homo sapiens, UniProt O14939); test: PLD2 purified enzyme concentration response. [Related pubchem assays (depositor defined):AID588854]
Phospholipase D1 = biological target: T4, Phospholipase D1 (Homo sapiens, UniProt Q13393); test: PLD1 purified enzyme concentration response. [Related pubchem assays (depositor defined):AID588854]
T4 sequence (Q13393 whole entry): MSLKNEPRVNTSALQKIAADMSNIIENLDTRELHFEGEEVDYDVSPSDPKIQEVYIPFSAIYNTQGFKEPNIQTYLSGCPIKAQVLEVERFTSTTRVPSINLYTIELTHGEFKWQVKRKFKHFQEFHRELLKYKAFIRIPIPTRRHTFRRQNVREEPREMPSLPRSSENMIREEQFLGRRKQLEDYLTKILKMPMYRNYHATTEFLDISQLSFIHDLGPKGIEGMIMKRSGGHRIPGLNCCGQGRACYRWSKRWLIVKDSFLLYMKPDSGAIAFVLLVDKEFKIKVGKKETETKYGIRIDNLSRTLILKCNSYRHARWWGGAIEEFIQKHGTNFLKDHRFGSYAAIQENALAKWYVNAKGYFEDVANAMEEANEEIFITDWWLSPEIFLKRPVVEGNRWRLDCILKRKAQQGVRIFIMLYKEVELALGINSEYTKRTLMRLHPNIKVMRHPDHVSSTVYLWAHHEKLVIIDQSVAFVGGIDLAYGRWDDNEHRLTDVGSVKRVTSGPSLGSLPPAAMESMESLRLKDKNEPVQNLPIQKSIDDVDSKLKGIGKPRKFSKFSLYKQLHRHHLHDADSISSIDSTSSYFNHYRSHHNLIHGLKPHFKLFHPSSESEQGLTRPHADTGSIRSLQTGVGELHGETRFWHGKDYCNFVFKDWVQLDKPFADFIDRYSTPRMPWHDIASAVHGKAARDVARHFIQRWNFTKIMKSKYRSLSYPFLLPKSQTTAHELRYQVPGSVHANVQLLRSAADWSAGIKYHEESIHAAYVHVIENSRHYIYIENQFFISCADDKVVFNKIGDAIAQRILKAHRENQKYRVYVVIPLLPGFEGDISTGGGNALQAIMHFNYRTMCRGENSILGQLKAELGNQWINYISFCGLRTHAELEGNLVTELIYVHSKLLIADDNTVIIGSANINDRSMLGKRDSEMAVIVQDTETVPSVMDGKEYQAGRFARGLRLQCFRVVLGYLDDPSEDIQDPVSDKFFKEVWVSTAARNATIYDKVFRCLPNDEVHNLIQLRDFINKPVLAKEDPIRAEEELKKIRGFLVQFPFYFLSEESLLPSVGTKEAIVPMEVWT

Phospholipase D2 [3] = biological target: T3, Phospholipase D2; test: PLD2 inhibitor potency in cells, dose response (AID 602147);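 also: cellular assay in HEK293 cells overexpressing GFP-tagged PLD2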
NIH3T3 = test: cytotoxicity in NIH-3T3 fibroblasts, dose response, cytotoxicity control for antifungal drug resistance project, cell-based, Alamar Blue, fluconazole, dry powder (AID 488809); details: Mus musculus
[4] = THP-1 cell cytotoxicity, cytotoxicity control, set 6 (AID 602433); details: Mycobacterium tuberculosis

T3 sequence (O14939 whole entry): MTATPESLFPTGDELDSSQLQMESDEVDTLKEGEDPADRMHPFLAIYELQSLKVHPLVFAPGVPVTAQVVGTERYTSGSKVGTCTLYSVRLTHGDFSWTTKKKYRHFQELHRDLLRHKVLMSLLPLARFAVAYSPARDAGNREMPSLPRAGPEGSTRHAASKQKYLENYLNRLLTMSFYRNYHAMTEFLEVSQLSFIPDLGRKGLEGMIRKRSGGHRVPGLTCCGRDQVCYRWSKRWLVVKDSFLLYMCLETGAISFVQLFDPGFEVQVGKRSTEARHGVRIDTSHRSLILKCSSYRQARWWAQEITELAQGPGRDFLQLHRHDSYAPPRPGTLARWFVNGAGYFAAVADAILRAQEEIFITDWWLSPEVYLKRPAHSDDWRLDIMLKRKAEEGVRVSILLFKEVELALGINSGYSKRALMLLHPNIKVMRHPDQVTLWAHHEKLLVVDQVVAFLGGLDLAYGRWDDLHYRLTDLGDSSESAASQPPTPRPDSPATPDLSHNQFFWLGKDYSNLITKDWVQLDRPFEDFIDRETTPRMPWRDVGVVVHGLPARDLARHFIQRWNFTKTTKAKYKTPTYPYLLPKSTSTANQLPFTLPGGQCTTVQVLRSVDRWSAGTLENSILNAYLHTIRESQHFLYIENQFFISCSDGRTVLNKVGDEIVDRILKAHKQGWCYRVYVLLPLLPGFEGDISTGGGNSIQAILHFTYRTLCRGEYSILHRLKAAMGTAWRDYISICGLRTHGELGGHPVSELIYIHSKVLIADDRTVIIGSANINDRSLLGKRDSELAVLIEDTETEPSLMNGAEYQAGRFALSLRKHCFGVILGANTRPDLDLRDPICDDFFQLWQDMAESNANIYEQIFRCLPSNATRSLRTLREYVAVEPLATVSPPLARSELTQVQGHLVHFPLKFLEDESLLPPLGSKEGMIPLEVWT

COc1ccc(S(=O)(=O)N(C)C[C@@H]2Oc3c(NC(=O)Nc4cccc(-c5ncccn5)c4)cccc3C(=O)N([C@@H](C)CO)C[C@H]2C)cc1
AC50 (INS1): 98 µM (active)

O=C(O)CSc1cc(NS(=O)(=O)c2ccc(F)cc2)c2ccccc2c1O
IC50 (Hexokinase HKDC1): 5.02 µM (active) | CC50 [1]: 6.86 µM (active) | IC50 (Hexokinase-1): 40.3 µM (inactive)

O=C(NCCN1CCC2(CC1)C(=O)NCN2c1ccc(F)c(F)c1)c1cnc2ccccc2c1
IC50 (Phospholipase D2 [2]): 0.2 µM (active) | IC50 (Phospholipase D1): 5.48 µM (active) | IC50 (Phospholipase D2 [3]): 0.069 µM (active)

O=S(=O)(c1ccc(Cl)cc1)N1CCN(c2ccnc3cc(Cl)ccc23)CC1
AC50 (NIH3T3): 27.7 µM (active)

CC(C)CCNC(=O)CSc1nc2c(c(=O)[nH]1)CCCC2
CC50 [4]: > 100 µM (inconclusive)
